Results on 2 compounds are retold here after patent US12414953B2, “Selective inhibitors of protein arginine methyltransferase 5 (PRMT5)” (Prelude Therapeutics, Incorporated, priority 2019, dated 2025).

Series [1] in a line: Solubility of HCl salt in solvents, saturated solution analyzed by HPLC. Type of series: physicochemical. Particulars: thermodynamic from solid; for solubility: 21 °C, 21 ± 1° C.; for solubility at 24 hr: 50 °C, 50 ± 1° C. The procedure:
3 mL of the tested solvent was added to a 4 mL of vial. Formula IA was added until a cloudy solution was obtained at 21±1° C. About 30 mg additional Formula IA was added to the cloudy solution. The mixture was agitated at 21±1° C. for a weekend, during which the temperature was controlled by IKA® ETS-D5 temperature controller and IKA® RCT basic safety control. The mixture was filtered using a syringe filter (PTFE, […], 13 mm, Agela Technologies Inc.). The satuatred solution was transferred into an HPLC vial, diluted with methanol, and analyzed by HPLC.
2 mL of the tested solvent was added to a 4 mL of vial. Formula IA was added until a cloudy solution was obtained at 50±1° C. About 30 mg additional Formula IA was added to the cloudy solution. The mixture was agitated at 50±1° C. for 24 hr, during which the temperature was controlled by IKA® ETS-D5 temperature controller and IKA® RCT basic safety control. The mixture was filtered using a syringe filter (PTFE, […], 13 mm, Agela Technologies Inc.). The saturated solution was transferred into an HPLC vial, diluted with methanol, and analyzed by HPLC.

The test system of the next series is U-87 MG cells. Briefly: Cell proliferation assay (CCK-8, day 10). The class given is cell-based. The following applies: Homo sapiens, 240 h, U-87 MG cell line, read-out: Prolif. IC50. The procedure: One day before experiment, Granta-519 cells were passaged to a density of 0.5×10^6 cells/ml. U-87 MG cells were trypsinized and 2,000 cells were seeded into 96-well plates and allowed to grow overnight. On the day of experiment (day 0), Granta-519 Cells were spun down at 1,500 rpm for 4 min, resuspended in fresh medium to 0.5×10^6 cells/ml and 190 μL of cells were added to 96 well plates. For U-87 MG cells, old medium was removed and replaced with 190 uL fresh medium. Compound working stocks were first diluted at 1:50 with fresh medium in 96 well plate and 10 μL of diluted drugs were added to 96 well plates containing cells and incubated for 3 days. DMSO was used a vehicle control.
One day 3, 50 μL of Granta-519 cells were transferred to a new 96-well plate and 140 uL fresh medium was added. […]
On day 10, 100 μL Granta-519 cells were transferred to a new 96 well plate and 10 μL of Cell Counting Kit-8 (CCK-8, Jojindo, CK04-13) solution was added. […] Plates were incubated in CO2 incubator for 2 hours (Granta-519 cells) or 30 min (U-87 MG cells) and OD450 values were measured with a microplate reader (iMark microplate reader, Bio-Rad). Percentage of viable cells, relative to DMSO vehicle control, were calculated and plotted in Graphpad Prism ([Inhibitor] vs. normalized response−Variable slope) to determine proliferation IC50 values on day 10. […]

[2] abbreviates: organic solvent or mixture, EtOAc.
[3] abbreviates: organic solvent or mixture, EtOH.
The mark [4] stands for this setting: organic solvent or mixture, IPA.
Where [5] appears, read: organic solvent or mixture, IPAc.
Setting [6] is: organic solvent or mixture, MeCN.
[7] abbreviates: organic solvent or mixture, Methanol.

A word on the solubility: it is the concentration that dissolves in the medium under given conditions. For the compound `Cc1ncnc2c1ccn2[C@@H]1O[C@H]([C@@H]2OCCc3cc(Cl)ccc32)[C@@H](O)[C@H]1O` [Formula IA, (2S,3S,4R,5R)-2-((R)-6-chloroisochroman-1-yl)-5-(4-methyl-7H-pyrrolo[2,3-d]pyrimidin-7-yl)tetrahydrofuran-3,4-diol], the solubility in series [1] (setting [2]) was 120 µg/mL; in series [1] (setting [3]), 7640 µg/mL; in series [1] (setting [4]), 960 µg/mL; in series [1] (setting [5]) it was 160 µg/mL; in series [1] (setting [6]) it was 690 µg/mL; in series [1] (setting [7]) it was over 50000 µg/mL. Moreover, the solubility in series [1] (Water) worked out at 14700 µg/mL. The solubility at 24 hr in series [1] (setting [2]) is 160 µg/mL; in series [1] (setting [3]), 10800 µg/mL; in series [1] (setting [4]), 1990 µg/mL; in series [1] (setting [5]), 240 µg/mL; in series [1] (setting [6]) it was 1050 µg/mL; in series [1] (setting [7]) it was over 50000 µg/mL. In series [1] (Water), the solubility at 24 hr turned out to be 43800 µg/mL.
What is called IC50 is the concentration that gives 50% inhibition. With `Cc1ncnc2c1ccn2[C@@H]1O[C@H]([C@@H]2OCCc3cc(Cl)ccc32)[C@@H](O)[C@H]1O` [Formula I, (2S,3S,4R,5R)-2-((R)-6-chloroisochroman-1-yl)-5-(4-methyl-7H-pyrrolo[2,3-d]pyrimidin-7-yl)tetrahydrofuran-3,4-diol], the IC50 in the series with U-87 MG cells came out at 54 nM.
